The text below walks through data of patent US7795286B2 (L'Oreal, priority 2004, dated 2010).

For this assay, the system named is keratinocytes. The assay can be described thus: Active photoprotection towards UVA-induced oxidative stress on keratinocytes (DCFH-DA fluorescent probe). Conditions: for % of fluorescence relative to the control cells exposed to UVA, TEST 1 / % of fluorescence relative to the control cells exposed to UVA, TEST 2 / % of fluorescence relative to the control cells exposed to UVA, TEST 3 / % of fluorescence relative to the control cells exposed to UVA, Mean: 24 h pre-incubation; for % of fluorescence relative to the control cells exposed to UVA, TEST 1 / % of fluorescence relative to the control cells exposed to UVA, TEST 2 / % of fluorescence relative to the control cells exposed to UVA, TEST 3: DCF fluorescence after UVA; for % of fluorescence relative to the control cells exposed to UVA, Mean: mean of 3 tests. It counts as cell-based. The method, then:
The technique for evaluating the photo-protection is performed according to a well-known method (J. of Photochemistry and Photobiology B: Biology 57 (2000) 102-112 TOBI et al: Glutathione modulates the level of free radicals produced in UVA irradiated cells). This technique uses a fluorescent probe as a marker of the global intracellular oxidative stress, 2′,7′-dichlorofluoresceine diacetate (DCFH-DA).
The use of DCFH-DA as an oxidative stress marker is based on its physicochemical properties. It is a non-ionic apolar molecule capable of diffusing across cell membranes. Once inside the cell, DCFH-DA is hydrolysed by intracellular esterases to a non-fluorescent compound: DCFH or 2,7-dichlorofluoresceine. In the presence of activated oxygen species, DCFH is rapidly oxidized to a highly fluorescent compound: DCF or 2,7-dichlorofluoresceine.
At confluence, the keratinocytes are incubated in the presence of the compound of Example 1 for 24 hours at 37° C., 5% CO2, in the culture medium, according to a dose effect (3 concentrations). • 2. Incorporation of DCFH-DA
The keratinocytes, pretreated with the test compound, are rinsed and then incubated in the presence of DCFH-DA in the dark. • 3. Exposure to UVA
After this incubation, the DCFH-DA solution is removed and the cells are then exposed to UVA.
Comment: an unexposed control plate is kept in darkness at room temperature.
The fluorescence of the DCF is evaluated immediately after the exposure to UVA, by spectro-fluorimetry (excitation: 480 nm; emission: 530 nm). • 5. Results:
The results are expressed in Table 1 below, as a % of fluorescence relative to the control cells exposed to UVA.
The test described in Example 6 above was performed under the same conditions on R-2-oxothiazolidine-4-carboxylic acid (Compound A) and on an alkyl derivative thereof, described in patent U.S. Pat. No. 6,004,543 (Compound B).

On to `O=C1N[C@H](C(=O)O)CS1` [Compound A, R-2-oxothiazolidine-4-carboxylic acid, reference compound], for which the “Measurement of the intracellular Red/Ox balance: % reduction in the fluorescence of the DCFH probe” value (at 5 mM) is listed as 16% at 5 mM.

Turning to `CCOC(=O)C1CSC(=O)N1` (stereo not drawn) [Compound B, reference compound], the “Measurement of the intracellular Red/Ox balance: % reduction in the fluorescence of the DCFH probe” value (at 7 mM, with dose effect) is listed as 37% at 7 mM with dose effect.

As to `C[Si](C)(C)COC(=O)[C@@H]1CSC(=O)N1` [Example 1], where the note is “100 μM”, the “% of fluorescence relative to the control cells exposed to UVA, TEST 1” value was found to be 95%; the “% of fluorescence relative to the control cells exposed to UVA, TEST 2” value is 81%; the “% of fluorescence relative to the control cells exposed to UVA, TEST 3” value is 75%; the “% of fluorescence relative to the control cells exposed to UVA, Mean” value is on record as 84%. Also, under “250 μM”, the “% of fluorescence relative to the control cells exposed to UVA, TEST 1” value is 82%; the “% of fluorescence relative to the control cells exposed to UVA, TEST 2” value was determined as 71%; the “% of fluorescence relative to the control cells exposed to UVA, TEST 3” value turned out to be 70%; the “% of fluorescence relative to the control cells exposed to UVA, Mean” value is 74%. Further, for the setting “500 μM”, the “% of fluorescence relative to the control cells exposed to UVA, TEST 1” value is 75%; the “% of fluorescence relative to the control cells exposed to UVA, TEST 2” value was found to be 70%; the “% of fluorescence relative to the control cells exposed to UVA, TEST 3” value is 58%; the “% of fluorescence relative to the control cells exposed to UVA, Mean” value is given as 68%. The “Measurement of the intracellular Red/Ox balance: % reduction in the fluorescence of the DCFH probe” value (at 500 μM, with dose effect) is reported as “approximately 32%”.
